From patent US9062004B2, “Cannabinoid-2 agonists” (Allergan, Inc., priority 2010, dated 2015) come the findings set out here.

Bounds are passed on as bounds.

Experiment [1] concerns the target human CB1 cannabinoid receptor (Homo sapiens (Human), UniProt P21554). Nature of the experiment: Radioligand binding assay, CB1 ([3H]-CP 55,940 competition). The note with it: plasma membranes of HEK 293 EBNA cells transfected with human CB1; 0.72 nM [3H]-CP 55,940; NA = not active. The protocol: (§1) A. Radioligand Binding Assay
(§2) Plasma membranes prepared from HEK 293 EBNA cells transfected with human CB1 or CB2 cannabinoid receptors ([…] protein, receptor concentration; PerkinElmer) were used for the radioligand binding studies. The composition of incubation buffer for CB1 assay was 50 mM Tris base, 2.5 mM EDTA, 5 mM MgCl2 and 0.5 mg/ml fatty acid free BSA and for CB2 assay was 50 mM Tris base, 2.5 mM EGTA, 5 mM MgCl2 and 1 mg/ml fatty acid free BSA; pH was adjusted to 7.4 by adding 1N HCl. Plasma membranes were diluted with incubation buffer to provide a final protein concentration of 2.4 μg (CB1) or 8 μg (CB2) per well in non-binding surface polystyrene 96-well assay plates (Corning). Compound solutions were prepared in silanized glass tubes and dispensed using pipette tips with SUPERSLIK™ surface. Competition studies were performed using a final concentration of 0.72 nM [^3H]-CP 55,940 (100-180 Ci/mmol, specific activity; PerkinElmer) against test compounds. Non-specific binding was determined using 10 uM of unlabeled CP 55,940. Incubations were performed in 96-well assay plates at a final volume of 200 ul for 90 min (CB1) or 60 min (CB2) at room temperature. Binding reactions were terminated by the addition of ice-cold incubation buffer and rapid filtration through a glass fiber filter using a cell harvester (Inotech). This was followed by 8 additional washes. The glass fiber filter (0.26 mm thickness, 1-1.5 um retention; Inotech) was presoaked in cold incubation buffer containing 0.05% polyethylenimine. The filters were oven-dried at 50° C. for 60 min and counting performed using a Beckman Coulter LS 6500 Multi-Purpose Scintillation Counter (Beckman-Coulter). Binding was determined in duplicate for at least 4 separate experiments.

For experiment [2], the target named is human CB2 cannabinoid receptor (Homo sapiens (Human), UniProt P34972). Kind of experiment: Radioligand binding assay, CB2 ([3H]-CP 55,940 competition). The note with it: for CB2 Selectivity: CB2 versus CB1 binding (ratio of CB1 IC50 to CB2 IC50); for IC50: plasma membranes of HEK 293 EBNA cells transfected with human CB2, 0.72 nM [3H]-CP 55,940, NA = not active. The procedure: as §1, §2
Sequence of human CB2 cannabinoid receptor (P34972 whole entry): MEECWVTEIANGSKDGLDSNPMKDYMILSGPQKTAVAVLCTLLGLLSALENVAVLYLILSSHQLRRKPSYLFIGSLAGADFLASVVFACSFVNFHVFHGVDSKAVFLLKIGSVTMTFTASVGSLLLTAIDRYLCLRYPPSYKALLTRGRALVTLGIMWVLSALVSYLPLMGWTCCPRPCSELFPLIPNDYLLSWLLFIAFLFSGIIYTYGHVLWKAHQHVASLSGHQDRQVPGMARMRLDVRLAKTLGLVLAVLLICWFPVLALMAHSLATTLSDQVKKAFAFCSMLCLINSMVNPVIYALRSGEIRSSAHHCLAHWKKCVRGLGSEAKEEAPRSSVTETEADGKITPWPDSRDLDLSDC

Experiment [3] relates to mouse isolated vas deferens. Nature of the experiment: Mouse isolated vas deferens (MVD) bioassay, electrically stimulated contractions. The format is cell-based. The note with it: Mus musculus; vas deferens of male Swiss Webster mice, electrically evoked contractions; NA = not active; read-out: MVD Assay EC50.

Sequence of human CB1 cannabinoid receptor (P21554 whole entry): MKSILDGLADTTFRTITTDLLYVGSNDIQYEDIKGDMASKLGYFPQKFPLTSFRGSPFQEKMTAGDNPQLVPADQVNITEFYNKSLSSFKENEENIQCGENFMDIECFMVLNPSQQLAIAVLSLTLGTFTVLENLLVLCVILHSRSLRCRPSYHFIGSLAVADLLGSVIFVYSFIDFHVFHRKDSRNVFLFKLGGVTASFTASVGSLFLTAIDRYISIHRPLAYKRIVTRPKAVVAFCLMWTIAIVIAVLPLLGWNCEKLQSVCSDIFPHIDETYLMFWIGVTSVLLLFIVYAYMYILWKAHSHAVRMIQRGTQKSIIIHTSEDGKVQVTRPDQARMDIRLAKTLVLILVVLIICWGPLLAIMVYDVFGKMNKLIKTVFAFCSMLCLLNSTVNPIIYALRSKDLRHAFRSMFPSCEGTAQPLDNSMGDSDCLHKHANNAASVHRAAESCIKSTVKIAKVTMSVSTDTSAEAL

Consider `CC1(C)CC(n2ncc3c(cnn3CCN3CCOCC3)c2=O)CC(C)(C)C1` [Compound 36, 1-(2-Morpholin-4-ylethyl)-5-(3,3,5,5-tetramethylcyclohexyl)pyrazolo[3,4-d]pyridazin-4-one], for which the IC50 (as a rule, the concentration that gives 50% inhibition) in experiment [1] was determined as 219 nM. Besides, in experiment [2], the “CB2 Selectivity” value is on record as 26 and the concentration for half-maximal inhibition (IC50) came out at 8.5 nM. The EC50 (usually the concentration giving half of the maximal effect) in experiment [3] is 33 nM.
Compound `CCCNc1cnn(C2CC(C)(C)CC(C)(C)C2)c(=O)c1Cl` [Compound 5, 4-Chloro-5-propylamino--2-(3,3,5,5-tetramethylcyclohexyl)pyridazin-3-one] came in with an IC50 in experiment [1] of 1020 nM. Further, in experiment [2], the “CB2 Selectivity” value is 189 and the IC50 is 5.4 nM. For the same compound, the half-maximal effective concentration (EC50) in experiment [3] was 30 nM.
In the same order, the values of `CC1(C)CC(n2ncc(NCCN3CCOCC3)c(Br)c2=O)CC(C)(C)C1` [Compound 15, 4-Bromo-5-(2-morpholin-4-ylethylamino)-2-(3,3,5,5-tetramethyl-cyclohexyl)pyridazin-3-one] are 1860 nM, 83, 22.4 nM and 86 nM.
For the compound `CNc1cnn(C2CC(C)(C)CC(C)(C)C2)c(=O)c1Cl` [Compound 3, 4-Chloro-5-methylamino-2-(3,3,5,5-tetramethylcyclohexyl)pyridazin-3-one], the IC50 in experiment [1] was > 10000 nM. In addition, in experiment [2], the “CB2 Selectivity” value was >28 and the IC50 turned out to be 355 nM. Besides, in experiment [3], the EC50 was found to be 2900 nM.
`CN(C)c1cnn(C2CC(C)(C)CC(C)(C)C2)c(=O)c1` [Compound 7, 5-Dimethylamino-2-(3,3,5,5-tetramethylcyclohexyl)pyridazin-3-one]: the IC50 in experiment [1] is > 10000 nM. Also, in experiment [2], the “CB2 Selectivity” value is >26 and the IC50 came to 380 nM. The EC50 in experiment [3] is 2500 nM.
In the same order, the values of `CCCNc1cnn(C2CC(C)(C)CC(C)(C)C2)c(=O)c1Br` [Compound 13, 4-Bromo-5-propylamino--2-(3,3,5,5-tetramethylcyclohexyl)pyridazin-3-one] are 174 nM, 36, 4.8 nM and 21 nM.
In the same order, the values of `CN(C)CCN(C)c1cnn(C2CC(C)(C)CC(C)(C)C2)c(=O)c1Cl` [Compound 31, 4-Chloro-5-(2-dimethylaminoethylmethylamino)-2-(3,3,5,5-tetramethyl-cyclohexyl)pyridazin-3-one] are 2630 nM, 132, 20 nM and 330 nM.
Taken in the same sequence, the figures for `CN(C)c1cnn(C2CC(C)(C)CC(C)(C)C2)c(=O)c1Cl` [Compound 4, 4-Chloro-5-dimethylamino-2-(3,3,5,5-tetramethylcyclohexyl) pyridazin-3-one] were 1020 nM, 60, 17 nM and 82 nM.
As to `CN(C)CCNc1cnn(C2CC(C)(C)CC(C)(C)C2)c(=O)c1Br` [Compound 14, 4-Bromo-5-(2-dimethylaminoethylamino)-2-(3,3,5,5-tetramethyl-cyclohexyl)pyridazin-3-one], in experiment [1], the IC50 is 7410 nM. For the same compound, in experiment [2], the “CB2 Selectivity” value was determined as 177 and the IC50 amounted to 42 nM. In experiment [3], the EC50 came out at 820 nM.
